Assay results taken from US9056916B2, “Method and assay kit for detection of toxicity induced by pyrrolizidine alkaloids” (priority 2012, dated 2015).

What was measured:
Assay type in all cases: binding, rabbit
[1] = tested on: antiserum II; experiment: Competitive ELISA and cross-reactivity test of antiserum II; details: antiserum II 1:30000, pure PA as competitor
Description: In competitive ELISA assay, one hundred microliters of coating antigen, BSA-pyrrole adducts, in PBS buffer was added to wells of a 96-well microtiter plate. The plates were incubated at 4° C. overnight or room temperature for 2 h. Serial dilutions of the competitor, N-acetyl-L-lysine-pyrrole, were prepared in PBST buffer. The resulting solution was mixed (1:1 v/v) with diluted antiserum in 5% nonfat milk dissolved in PBST buffer. The mixture was incubated at 4° C. overnight. The following day, the same procedure as in the titer analysis was followed. The absorbance at dual wavelength (450-650 nm) was read.

[2] = tested on: purified N-antibody; experiment: Competitive Western blot of purified N-antibody; details: competitor 0.1 mM or 1 mM, concentration-dependent
Description: (§1) In Western and competitive Western blot assay, coating antigen was loaded and resolved by 7.5% SDS-PAGE and then transferred to nitrocellulose membranes. Blots were then blocked with 5% nonfat milk in PBST buffer for 1 h at room temperature. Blotted membranes were incubated with 1/4000 dilution of purified N-antibody in PBST buffer with 5% nonfat milk in the absence or 0.1 mM or 1 mM of pyrrole-(NHMe)2 at 4° C. overnight. The following day, after washing three times with PBST buffer, membranes were incubated with anti-rabbit IgG-horseradish peroxidase solution (1/5000 in PBST buffer with 5% nonfat milk) for 1 h at room temperature. After washing, protein bands were detected by chemiluminescence with an ECL detection kit. […] Moreover, the immune response was inhibited by pyrrole-containing competitor, pyrrole-(NHMe)2, in competitive Western blot assays, and the inhibitory effect was concentration-dependent manner (FIG. 9).

[3] = tested on: purified S-antibody; experiment: Competitive Western blot of purified S-antibody; details: competitor 0.1 mM or 1 mM, concentration-dependent
Description: as §1, with “S-antibody” for “N-antibody”, “pyrrole-(SMe)2” for “pyrrole-(NHMe)2”, “pyrrole-(SMe)2,” for “pyrrole-(NHMe)2,”, “(See FIG. 11).” for “(FIG. 9).”

| Compound | cross-reactivity with antiserum II [1] | other results |
| --- | --- | --- |
| C[C@H]1C(=O)O[C@@H]2CCN3CC=C(COC(=O)[C@](C)(O)[C@]1(C)O)[C@H]23 [monocrotaline] | no cross-reactivity | – |
| pyrrole-(NHMe)2 | – | inhibition of immune response of N-antibody with BSA-pyrrole adducts [2]: inhibited |
| pyrrole-(SMe)2 | – | inhibition of immune response of S-antibody with BSA-pyrrole adducts [3]: inhibited |
| retrorsine | no cross-reactivity | – |
